Results taken from patent US9303012B2, “Pyridine-2-amides useful as CB2 agonists” (Hoffmann-La Roche Inc., priority 2012, dated 2016).

What was measured:
[1] = target: human CB1 receptors (Homo sapiens (Human), UniProt P21554); test: functional cAMP assay, CHO cells expressing human CB1 receptors; assay type: cell-based
Description: (§1) CHO cells expressing human CB1 or CB2 receptors are seeded 17-24 hours prior to the experiment 50.000 cells per well in a black 96 well plate with flat clear bottom (Corning Costar #3904) in DMEM (Invitrogen No. 31331), 1×HT supplement, with 10% fetal calf serum and incubated at 5% CO2 and 37° C. in a humidified incubator. The growth medium was exchanged with Krebs Ringer Bicarbonate buffer with 1 mM IBMX and incubated at 30° C. for 30 min. Compounds were added to a final assay volume of 100 μl and incubated for 30 min at 30° C. Using the cAMP-Nano-TRF detection kit the assay (Roche Diagnostics) was stopped by the addition of 50 μl lysis reagent (Tris, NaCl, 1.5% Triton X100, 2.5% NP40, 10% NaN3) and 50 μl detection solutions (20 μM mAb Alexa700-cAMP 1:1, and 48 μM Ruthenium-2-AHA-cAMP) and shaken for 2 h at room temperature. The time-resolved energy transfer is measured by a TRF reader (Evotec Technologies GmbH), equipped with a ND:YAG laser as excitation source. The plate is measured twice with the excitation at 355 nm and at the emission with a delay of 100 ns and a gate of 100 ns, total exposure time 10 s at 730 (bandwidth 30 nm) or 645 nm (bandwidth 75 nm), respectively. The FRET signal is calculated as follows: FRET=T730-Alexa730-P(T645-B645) with P=Ru730-B730/Ru645-B645, where T730 is the test well measured at 730 nM, T645 is the test well measured at 645 nm, B730 and B645 are the buffer controls at 730 nm and 645 nm, respectively. cAMP content is determined from the function of a standard curve spanning from 10 μM to 0.13 nM cAMP.
(§2) EC50 values were determined using Activity Base analysis (ID Business Solution, Limited). The EC50 values for a wide range of cannabinoid agonists generated from this assay were in agreement with the values published in the scientific literature.

[2] = target: human CB2 receptors (Homo sapiens (Human), UniProt P34972); test: functional cAMP assay, CHO cells expressing human CB2 receptors; assay type: cell-based
Description: as §1, §2

Chain of human CB2 receptors (P34972 whole entry): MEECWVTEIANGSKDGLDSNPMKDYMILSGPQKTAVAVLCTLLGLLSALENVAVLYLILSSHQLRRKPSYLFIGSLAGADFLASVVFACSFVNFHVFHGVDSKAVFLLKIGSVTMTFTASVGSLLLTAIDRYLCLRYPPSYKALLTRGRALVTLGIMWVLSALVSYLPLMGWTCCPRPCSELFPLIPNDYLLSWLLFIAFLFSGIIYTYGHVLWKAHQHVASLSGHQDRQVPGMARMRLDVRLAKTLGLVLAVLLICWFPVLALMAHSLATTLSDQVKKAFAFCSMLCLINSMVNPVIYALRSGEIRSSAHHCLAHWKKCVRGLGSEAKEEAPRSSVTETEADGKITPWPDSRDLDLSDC
Chain of human CB1 receptors (P21554 whole entry): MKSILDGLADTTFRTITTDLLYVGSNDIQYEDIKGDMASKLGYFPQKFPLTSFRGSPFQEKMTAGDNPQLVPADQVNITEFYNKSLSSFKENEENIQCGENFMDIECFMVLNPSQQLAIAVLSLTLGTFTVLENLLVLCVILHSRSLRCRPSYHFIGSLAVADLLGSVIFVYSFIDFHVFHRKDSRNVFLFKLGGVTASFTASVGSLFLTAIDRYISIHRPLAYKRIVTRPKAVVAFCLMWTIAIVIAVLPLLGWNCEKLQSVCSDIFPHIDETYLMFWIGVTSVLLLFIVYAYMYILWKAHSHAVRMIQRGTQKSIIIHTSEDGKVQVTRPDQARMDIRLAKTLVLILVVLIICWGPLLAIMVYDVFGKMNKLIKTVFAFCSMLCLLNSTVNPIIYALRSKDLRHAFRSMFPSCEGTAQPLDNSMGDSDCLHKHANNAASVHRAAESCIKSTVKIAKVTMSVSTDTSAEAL

| Compound | EC50 [1] [nM] | EC50 [2] [nM] |
| --- | --- | --- |
| O=C(c1ccc(N2CC(F)(F)C2)c(OCC2CC2)n1)N1CC2CCOC2C1 (stereo not drawn) [Example 70, [6-Cyclopropylmethoxy-5-(3,3-difluoro-azetidin-1-yl)-pyridin-2-yl]-(hexahydrofuro[2,3-c]pyrrol-5-yl)-methanone] | > 10000 | 104 |
| NC(=O)[C@@H]1CC(F)(F)CN1C(=O)c1ccc(C2CC2)c(OCC2CCCO2)n1 (stereo partly drawn) [Example 75, (S)-1-{5-Cyclopropyl-6-[(R,S)-1-(tetrahydro-furan-2-yl)methoxy]-pyridine-2-arbonyl}-4,4-difluoro-pyrrolidine-2-carboxylic acid amide] | > 10000 | 16.2 |
| CC1(C)C[C@@H]2C[C@@](C)(CN2C(=O)c2ccc(N3CC(F)(F)C3)c(OCC3CC3)n2)C1 [Example 45, [6-Cyclopropylmethoxy-5-(3,3-difluoro-azetidin-1-yl)-pyridin-2-yl]-((1S,5R)-1,3,3-trimethyl-6-aza-bicyclo[3.2.1]oct-6-yl)-methanone] | > 10000 | 6.8 |
| CN(C(=O)c1ccc(N2CC(F)(F)C2)c(OCC2CC2)n1)c1ccccc1 [Example 52, 6-Cyclopropylmethoxy-5-(3,3-difluoro-azetidin-1-yl)-pyridine-2-carboxylic acid methyl-phenyl-amide] | > 10000 | 645 |
| COC1CN(c2ccc(C(=O)N3CS(=O)(=O)CC3C(N)=O)nc2OCC2CC2)C1 (stereo not drawn) [Example 128, 3-[6-(Cyclopropylmethoxy)-5-(3-methoxyazetidin-1-yl)pyridine-2-carbonyl]-1,1-dioxo-1,3-thiazolidine-4-carboxamide] | > 10000 | 30.2 |
| O=C(c1ccc(N2CC(F)(F)C2)c(OCC2CC2)n1)N1CC(F)(F)C(F)(F)C1 [Example 118, [6-Cyclopropylmethoxy-5-(3,3-difluoro-azetidin-1-yl)-pyridin-2-yl]-(3,3,4,4-tetrafluoro-pyrrolidin-1-yl)-methanone] | > 10000 | 13.2 |
| CC(C)(C)OC(=O)N1CCC2(CCCN2C(=O)c2ccc(C3CC3)c(Cc3ccc(F)cc3)n2)CC1 [Example 111, 1-[5-Cyclopropyl-6-(4-fluoro-benzyl)-pyridine-2-carbonyl]-1,8-diaza-spiro[4.5]decane-8-carboxylic acid tert-butyl ester] | 2780 | 8 |
| CN(C(=O)c1ccc(C(F)(F)F)c(OCC2CCCO2)n1)C(C)(C)C (stereo not drawn) [Example 15, 6-(Tetrahydro-furan-2-ylmethoxy)-5-trifluoromethyl-pyridine-2-carboxylic acid tert-butyl-methyl-amide] | > 10000 | 249 |
| CC(C)(C)N(Cc1ccccc1)C(=O)c1ccc(N2CC(F)(F)C2)c(OCC2CC2)n1 [Example 25, 6-Cyclopropylmethoxy-5-(3,3-difluoro-azetidin-1-yl)-pyridine-2-carboxylic acid benzyl-tert-butyl-amide] | > 10000 | 37 |
| CCOC(=O)CN(C(=O)c1ccc(N2CC(F)(F)C2)c(OCC2CC2)n1)C(C)(C)C [Example 23, {tert-Butyl-[6-cyclopropylmethoxy-5-(3,3-difluoro-azetidin-1-yl)-pyridine-2-carbonyl]-amino}-acetic acid ethyl ester] | > 10000 | 5.8 |
| CC(C)C[C@H](c1cccnn1)N(C)C(=O)c1ccc(N2CC(F)(F)C2)c(OCC2CC2)n1 [Example 34, (+)-6-Cyclopropylmethoxy-5-(3,3-difluoro-azetidin-1-yl)-pyridine-2-carboxylic acid methyl-(3-methyl-1-pyridazin-3-yl-butyl)-amide] | > 10000 | 91.1 |
| NC(=O)[C@@H]1C[C@H](O)CN1C(=O)c1ccc(N2CC(F)(F)C2)c(OCC2CC2)n1 [Example 79, (2S,4S)-1-[6-Cyclopropylmethoxy-5-(3,3-difluoro-azetidin-1-yl)-pyridine-2-carbonyl]-4-hydroxy-pyrrolidine-2-carboxylic acid amide] | > 10000 | 519 |
| CC1(C)C[C@@H](C(N)=O)N(C(=O)c2ccc(C3CC3)c(OCC3CC3)n2)C1 [Example 95, (−)-1-(5-Cyclopropyl-6-cyclopropylmethoxy-pyridine-2-carbonyl)-4,4-dimethyl-pyrrolidine-2-carboxylic acid amide] | > 10000 | 10.4 |
| CC(Oc1nc(C(=O)N(C)C(C)(C)C)ccc1C1CC1)C(F)(F)F (stereo not drawn) [Example 13, 5-Cyclopropyl-6-(2,2,2-trifluoro-1-methyl-ethoxy)-pyridine-2-carboxylic acid tert-butyl-methyl-amide] | > 10000 | 119 |
| Cn1nnnc1CN(C(=O)c1ccc(N2CC(F)(F)C2)c(OCC2CC2)n1)C(C)(C)C [Example 40, 6-Cyclopropylmethoxy-5-(3,3-difluoro-azetidin-1-yl)-pyridine-2-carboxylic acid tert-butyl-(1-methyl-1H-tetrazol-5-ylmethyl)-amide] | > 10000 | 81.8 |
| NC(=O)[C@@H]1C[C@H](F)CN1C(=O)c1ccc(C2CC2)c(OCC2CC2)n1 [Example 69, (2S,4S)-1-(5-Cyclopropyl-6-cyclopropylmethoxy-pyridine-2-carbonyl)-4-fluoro-pyrrolidine-2-carboxylic acid amide] | > 10000 | 1040 |
| CC1(C)COCN1C(=O)c1ccc(OCC2CC2)c(Cl)n1 [Example 49, (6-Chloro-5-cyclopropylmethoxy-pyridin-2-yl)-(4,4-dimethyl-oxazolidin-3-yl)-methanone] | > 10000 | 139 |
| CC1(C)C(=O)NCCN1C(=O)c1ccc(N2CC(F)(F)C2)c(OCC2CC2)n1 [Example 28, 4-[6-Cyclopropylmethoxy-5-(3,3-difluoro-azetidin-1-yl)-pyridine-2-carbonyl]-3,3-dimethyl-piperazin-2-one] | > 10000 | 414 |
| O=C(O)C1C2CN(C(=O)c3ccc(N4CC(F)(F)C4)c(OCC4CC4)n3)CC21 (stereo not drawn) [Example 110, 3-[6-Cyclopropylmethoxy-5-(3,3-difluoro-azetidin-1-yl)-pyridine-2-carbonyl]-3-aza-bicyclo[3.1.0]hexane-6-carboxylic acid] | > 10000 | 386 |
| NC(=O)C1CS(=O)(=O)CN1C(=O)c1ccc(N2CC(F)(F)C2)c(OCC2CC2)n1 (stereo not drawn) [Example 125, 3-[6-(Cyclopropylmethoxy)-5-(3,3-difluoroazetidin-1-yl)pyridine-2-carbonyl]-1,1-dioxo-1,3-thiazolidine-4-carboxamide] | > 10000 | 9.5 |
| NC(=O)[C@H]1CC(F)(F)CN1C(=O)c1ccc(C2CC2)c(OCC(F)(F)C(F)(F)F)n1 [Example 87, (R)-1-[5-Cyclopropyl-6-(2,2,3,3,3-pentafluoro-propoxy)-pyridine-2-carbonyl]-4,4-difluoro-pyrrolidine-2-carboxylic acid amide] | > 10000 | 768 |
| CN(CC1CC1)C(=O)c1ccc(N2CC(F)(F)C2)c(OCC2CC2)n1 [Example 105, 6-Cyclopropylmethoxy-5-(3,3-difluoro-azetidin-1-yl)-pyridine-2-carboxylic acid cyclopropylmethyl-methyl-amide] | > 10000 | 218 |
| CNC(=O)CN(C(=O)c1ccc(N2CC(F)(F)C2)c(OCC2CC2)n1)C(C)(C)C [Example 26, 6-Cyclopropylmethoxy-5-(3,3-difluoro-azetidin-1-yl)-pyridine-2-carboxylic acid tert-butyl-methylcarbamoylmethyl-amide] | > 10000 | 306 |
| CC1(C)CN(C(=O)c2ccc(N3CC(F)(F)C3)c(OCC3CC3)n2)CCO1 [Example 55, [6-Cyclopropylmethoxy-5-(3,3-difluoro-azetidin-1-yl)-pyridin-2-yl]-(2,2-dimethyl-morpholin-4-yl)-methanone] | > 10000 | 55.4 |
| CC(C)(C)N(CC(N)=O)C(=O)c1ccc(N2CC(F)(F)C2)c(OCC2CC2)n1 [Example 35, 6-Cyclopropylmethoxy-5-(3,3-difluoro-azetidin-1-yl)-pyridine-2-carboxylic acid tert-butyl-carbamoylmethyl-amide] | > 10000 | 183 |
| Cc1nnc(CN(C(=O)c2ccc(N3CC(F)(F)C3)c(OCC3CC3)n2)C2CC2)o1 [Example 81, 6-Cyclopropylmethoxy-5-(3,3-difluoro-azetidin-1-yl)-pyridine-2-carboxylic acid cyclopropyl-(5-methyl-[1,3,4]oxadiazol-2-ylmethyl)-amide] | > 10000 | 652 |
| NC(=O)C1CSCCN1C(=O)c1ccc(C2CC2)c(OCC2CC2)n1 (stereo not drawn) [Example 89, 4-(5-Cyclopropyl-6-cyclopropylmethoxy-pyridine-2-carbonyl)-thiomorpholine-3-carboxylic acid amide] | > 10000 | 318 |
